Results from paper PMC3025922 (BMC Biology, 2010).
pIC50: −log10 of the molar value. Several values for one entry are separate records, joined by “and”; a condition that tells them apart may be missing. Equal values may be shown once. Read-outs that look alike come from different tables or passages of the source.

Experiments:
LNCaP-S14 cells [1] = experiment: Cell Death Detection ELISA (cytoplasmic histone-associated DNA fragments); assay type: cell-based, human
Description: Apoptosis was measured using the Cell Death Detection ELISA (Roche, Basel, Switzerland) following the manufacturer's instructions. Briefly, LNCaP-S14 cells (0.1 × 10^6) were seeded in 12-well plates and treated with SMIPs (40 μM) for 24 h. Cells were collected in medium, spun at 1000 rpm, and resuspended in 1 mL PBS at the specified time points (day 1 to day 3). The cell suspension was divided into two parts. The first half was used for determination of cytoplasmic histone-associated DNA fragments (ELISA), the second for protein determination to normalize the ELISA data to the amount of input protein.

PC3 cells [2] = experiment: Cell cycle analysis by flow cytometry, PC3; assay type: cell-based, human
Description: (§1) Cells were exposed to SMIPs (40 μM) for 24 h and 48 h. Cells were trypsinized, washed with PBS and suspended in 600 μL PBS. Cells were fixed by adding 1.4 mL cold absolute ethanol and kept at -20°C for at least 12 h. After washing once with PBS, the cells were resuspended in 250 μL PBS containing 2.5 μg RNAse A and incubated for 45 min at room temperature. Staining was done by adding 40 μg/mL of propidium iodine followed by incubation for 15 min at room temperature. DNA-bound fluorescence was read at 564 to 606 nm using FACSort and FACSCanto flow cytometers (BD Biosciences) at the Flow Cytometry Facility of the Sanford-Burnham Medical Research Institute. Distribution of cells in the different cell cycle phase was determined with ModFit LT 3.2.1 or FlowJo 8.6 software. Aggregates were excluded from the analysis manually using pulse shape or identified by automated modelling in ModFit LT.

[3] = system: p27 protein levels in HeLa cells; experiment: Immunoblot quantification of p27, HeLa; assay type: cell-based, human
Description: (§2) Total cell lysate from cells treated with vehicle (DMSO) or compounds were obtained by incubating cells in lysis buffer (25 mM Tris-HCl pH 7.4, 150 mM NaCl, 0.5% Triton X-100, protease inhibitors) for 15 min at 4°C. The supernatant was collected by centrifugation and the amount of protein was determined with a Bio-Rad protein assay (Bio-Rad) using BSA as standard. Equal amounts of protein were subjected to SDS-PAGE (4%-20% gels, Invitrogen) and transferred to PVDF membranes. The membranes were blocked with TBST (50 mM Tris-HCl pH 7.5, 150 mM NaCl, 0.05% Tween-20) containing 5% non-fat dry milk or bovine serum albumin (BSA) for 1 h at room temperature, followed by incubation in primary antibodies 4°C overnight. Membranes were washed and incubated with secondary antibodies conjugated to HRP (Jackson ImmunoResearch Laboratories) for 1 h at room temperature. Signals were visualized using the ECL Western Blotting Substrate (Pierce Biotechnology, IL, USA) according to the manufacturer's instructions. Membranes were stripped using Restore™ Western Blot Stripping Buffer (Pierce Biotechnology). Films were scanned and quantification of the bands was performed using Image J software http://rsbweb.nih.gov/ij/.

[4] = system: p21 protein levels in PC3 cells; experiment: Immunoblot quantification of p21, PC3; assay type: cell-based, human
Description: as §2

[5] = MTT cytotoxicity assay, IMR90; assay type: cell-based; settings: human, IMR90 normal fibroblasts
Description: (§3) LNCaP-S14 (10,000 cells), PC3, DU145 or IMR90 cells (5000 cells) were seeded in 96-well plates and treated with increasing concentrations of the respective SMIPs for 72 h. Cell viability was assessed using the MTT cell proliferation assay (ATCC®, Middlesex, UK) according to the manufacturer's protocol. IC50 was calculated using the BioDataFit 1.02 software http://www.changbioscience.com/stat/ec50.html.

LNCaP cells = experiment: Cell cycle analysis by flow cytometry, LNCaP; assay type: cell-based, human
Description: as §1

PC3 cells [6] = experiment: MTT cytotoxicity assay, PC3; settings: Homo sapiens, read-out: IC50 (MTT cytotoxicity)
Description: as §3

[7] = system: p21 protein levels in LNCaP-S14 cells; experiment: Immunoblot quantification of p21, LNCaP-S14; assay type: cell-based, human
Description: as §2

[8] = system: p27 protein levels in LNCaP cells; experiment: Immunoblot quantification of p27, LNCaP; assay type: cell-based, human
Description: as §2

[9] = system: p27 protein levels in LNCaP-S14 cells; experiment: Immunoblot quantification of p27, LNCaP-S14; assay type: cell-based, human
Description: as §2

IMR90 cells = experiment: Cell cycle analysis by flow cytometry, IMR90; assay type: cell-based, human
Description: as §1

[10] = system: p27 stability in LNCaP-S14 cells; experiment: Protein half-life by cycloheximide chase; assay type: cell-based, human; settings: LNCaP-S14, 40 μM SMIPs 18 h, then cycloheximide 100 μg/mL; DMSO ~ 1.29 h
Description: LNCaP-S14 cells were treated with SMIPs (40 μM) for 18 h followed by the addition of 100 μg/mL cycloheximide (CHX). Cell extracts were obtained as described above at different times after CHX addition. Protein lysate was subjected to SDS-PAGE and immunoblotting for p27, p21 and SKP2. Tubulin was used as loading control. Protein half-lives were calculated using a web based calculator http://www.1728.com/halflife.htm.

[11] = system: p21 protein levels in IMR90 cells; experiment: Immunoblot quantification of p21, IMR90; assay type: cell-based, human
Description: as §2

DU145 cells = experiment: MTT cytotoxicity assay, DU145; settings: Homo sapiens, read-out: IC50 (MTT cytotoxicity)
Description: as §3

LNCaP-S14 cells [12] = experiment: Cell cycle distribution in LNCaP-S14 transfected with siRNAs for p27 and p21; assay type: cell-based, human
Description: as §1
LNCaP-S14 cells were seeded in 6 cm dishes or six-well-plates coated with poly-lysine the day before transfection. 10-20 nM of siRNA was transfected using DharmaFECT 3 (Thermo Scientific) according to the manufacturer's instructions. Briefly, siRNAs were dissolved in siRNA suspension buffer (Quiagen) at 20 μM, heated to 90°C for 1 min and incubated at 37°C for 1 h. siRNAs were added to the DharmaFECT 3 reagent diluted in Optimem media (1:100) and incubated for 20 min at room temperature. The mix was added to the cells for 24 h. Treatment with SMIPs (40 μM) or vehicle was carried on for another 24 h. Cells were obtained for FACS or lysed for immunoblotting analysis as described above. Untransfected cells as well as cells transfected with non-specific siRNA were used as controls. Silencer® Negative Control siRNA No.1 from Ambion (Applied Biosciences, CA, USA) was used as non-specific control siRNA. siRNA target sequences for p27 and p21 synthesized by IDT (Integrated DNA Technologies Inc, Iowa, USA) were as follows; p27 siRNA: […], and p21 siRNA: […] [56].

[13] = system: p21 protein levels in LNCaP cells; experiment: Immunoblot quantification of p21, LNCaP; assay type: cell-based, human
Description: as §2

In the case of CC(C)(C)c1cc2cc(NC(=O)c3cccs3)ccc2[nH]1 [SMIP001], the “increase in the amount of mono and oligonucleosomes” value (LNCaP-S14 cells [1]) was “three- to fivefold”, the “Cell cycle distribution G1” value (PC3 cells [2]) was 48.6 and 57.5 and the “Cell cycle distribution G2” value (PC3 cells [2]) was 29.7 and 27.8. The “Cell cycle distribution S” value (PC3 cells [2]) was 20.4 and 13.6, the “p27 protein level (immunoblot, DMSO = 1.0)” value (from here on “p27 protein level”) [3] was 1.1 ± 0.1 and the “p21 protein level (immunoblot, DMSO = 1.0)” value (“p21 protein level” below) [4] was 1.1 ± 0.5. For the same compound, the IC50 at 72 h ([5]; IMR90, 0.01 - 40 μM) was > 20 µM, the IC50 at 72 h ([5]; IMR90, 0.01 - 80 μM) was 40 to 80 µM and the IC50 at 96 h ([5]; IMR90, 0.01 - 80 μM, 96 h) was 40 to 80 µM. The “Cell cycle distribution G1” value (LNCaP cells) was 84.5 and 83.6, the “Cell cycle distribution G2” value (LNCaP cells) was 7.6 and 6.6 and the “Cell cycle distribution S” value (LNCaP cells) was 6.6 and 8.5. The pIC50 (PC3 cells [6]; PC-3, 72 h) was ~4.10, the pIC50 (PC3 cells [6]; PC-3, 96 h) was 4.10 and the “p21 protein level” value [7] was 2.0 ± 0.6. The “p27 protein level” value [8] was 1.5 ± 0.7, the “p27 protein level” value [9] was 1.9 ± 0.5 and the “Cell cycle distribution G1” value (IMR90 cells) was 68.4 and 77.0. The “Cell cycle distribution G2” value (IMR90 cells) was 15.3 and 14.1, the “Cell cycle distribution S” value (IMR90 cells) was 16.2 and 8.9 and the p27 half-life [10] was “No effect”. The “p21 protein level” value [11] was 1.1 ± 0.0, the pIC50 (DU145 cells; DU-145, 72 h) was ~4.40 and the pIC50 (DU145 cells; DU-145, 96 h) was 4.49. The “% G1” value (LNCaP-S14 cells [12]) was 71.86% and 75.76% and 75.13% and 72.22%, the “% G2” value (LNCaP-S14 cells [12]) was 21.07% and 14.54% and 18.37% and 16.74% and the “% S” value (LNCaP-S14 cells [12]) was 7.07% and 9.70% and 6.50% and 11.04%. For the same compound, the “p21 protein level” value [13] was 1.7 ± 0.6.
